Reference: article PMC4786873, “Spacer-free BODIPY fluorogens in antimicrobial peptides for direct imaging of fungal infection in human tissue” (Nature Communications, 2016)
“Also recorded” adds a separate entry of the source. Read-outs that look alike come from different tables or passages of the source. Starred links: 1 amine or outer side, 2 acyl side, 3 side chain; linkers in the order of their positions; H or OH if unused. Non-standard residues stand in square brackets, D forms with d. Residues, ends and D or L forms follow the SMILES beside them. No end group written: not given here. X1 = CC1=CC(C)=[N+]2C1=C(c1cccc(-c3[nH]c4ccccc4c3C[C@H](N[*:1])C(=O)[*:2])c1)c1c(C)cc(C)n1[B-]2(F)F

Tests used:
[1] = test system: Aspergillus fumigatus (strain CEA10); type: cell-based; settings: for activity / affinity in A. fumigatus, in words: values only in Supplementary Fig. 8 (picture not shown), 9 compared with linear PAF26 (4)
Experimental: The A. fumigatus (strain CEA10, source: FGSC A1163) was grown on Vogel's medium at 37 °C for 5 days before the spores (conidia) were harvested. Peptides 4–8 were incubated at different concentrations with A. fumigatus conidia to reach a final volume of 100 μl per well. The final conidia concentration was 5 × 10^5 cells ml^−1 in 10% Vogel's medium. After 24 h incubation at 37 °C in 96 well-plates, fungal growth was determined by measuring OD610nm in a spectrophotometer. IC50 values were determined using four parameter logistic regression. Data is represented as means±s.e.m from at least three independent experiments with n=3.
Antimicrobial and ha emolysis assays.
Supplementary Figure 4. Determination of IC50 values of BODIPY-labelled peptides 5- 8 in A. fumigatus. Cell viability plots and non- linear regressions for peptides 5 (A), 6 (B), 7 (C) and 8 (D).
Peptides were incubated at different concentrations with A. fumigatus conidia to r each a final volum e of 100 μ L per well. T he final conidia concentration was 5 × 10^5 cells/m L in 10% Vogel’s m edium . After 24 h incubation at 37 °C in 96 well-plates, fungal growth was determ ined by m easuring the optical densit y at 610 nm . The IC50 values were determ ined using four param eter logistic regression. Data represented as m eans ± s.e.m (n=3).
(§1) (1 picture or pasted object on this page, not shown here)

[2] = test system: Pseudomonas aeruginosa (ATCC 47085); assay: In vitro antimicrobial activity (bacterial cell viability, OD600); type: cell-based; settings: 16 h incubation with peptide at its respective IC50 concentration (A. fumigatus), OD600 nm, n=3
Experimental: (§2) P. aeruginosa (ATCC 47085), K. pneumoniae (ATCC BAA1706) and E. coli (ATCC 25922) were grown on Lysogeny Broth (LB) agar plates and stored at 4 °C. For assays, a single colony of bacteria was taken into 10 mL liquid broth and incubated at 37 °C for 16 h. Cultures were centrifuged at 4,000 r.p.m. for 5 min and the pellet was re-suspended in 1 ml of fresh PBS and washed three times. Cultures were reconstituted to 1.0 OD595 nm, then diluted 1:1,000 and incubated with compounds 4–8 at the indicated concentrations (that is, concentrations matching the IC50 values in A. fumigatus for all compounds, except for compounds 3 and 5a where a top concentration of 20 μM was used). Cell viability was monitored over 16 h by measuring OD600 nm in a spectrophotometer. Data is represented as % of cell viability as means from at least two independent experiments with n=3.

[3] = test system: Escherichia coli (ATCC 25922); assay: as above; type: cell-based; settings: 16 h incubation with peptide at its respective IC50 concentration (A. fumigatus), OD600 nm, n=3
Experimental: as §2

[4] = test system: Klebsiella pneumoniae (ATCC BAA1706); assay: as above; type: cell-based; settings: 16 h incubation with peptide at its respective IC50 concentration (A. fumigatus), OD600 nm, n=3
Experimental: as §2

human RBCs = assay: Determination of haemolytic activity; type: cell-based; settings: red cells of human, 1 h
Experimental: Erythrocytes were isolated from freshly drawn, anticoagulated human blood and diluted in PBS (1:5). An amount of 50 μl of erythrocyte suspension was added to 50 μl of compounds 4–8 at the indicated concentrations (that is, concentrations matching the IC50 values in A. fumigatus for all compounds, except for compounds 3 and 5a where a top concentration of 20 μM was used). 0.2% Triton X-100 was used as positive control and PBS as negative control. The plate was incubated at 37 °C for 1 h, each well was diluted with 150 μl of PBS and the plate was centrifuged at 1,200g for 15 min. A total of 100 μl of the supernatant from each well was transferred to a fresh plate, and the absorbance at 350 nm was measured in a microplate reader. Data is represented as % of cell viability as means from three independent experiments with n=3.
Supplementary Figure 6. Haemolytic activity of peptides 4-8 in human red blood cells (RBCs).
Peptides 4-8 and T riton X-100 (0.2% as positive control) were incubated with hum an RBCs at 37 °C and their viabilit y was assessed after 1 h. Data repres ented as m eans ± s.d. (n=3). *** for p < 0.001 was determ ined as a statis tically s ignificant difference between the c ell viabilities in PBS (phosphate buffer saline) and in T riton X-100.
as §1

[5] = Chemical stability in human bronchoalveolar lavages; type: in vitro ADME; settings: human bronchoalveolar lavage from patients with acute respiratory distress syndrome, 37 °C; for remaining at 1 h, 20 μM / remaining at 3 h, 20 μM / remaining at 24 h, 20 μM: HPLC-UV (C18); for remaining at 1 h, 20 μM: read-out: chemical stability in human bronchoalveolar lavage, percentage at 1 h (measure not given); for remaining at 3 h, 20 μM: read-out: chemical stability in human bronchoalveolar lavage, percentage at 3 h (measure not given); for remaining at 24 h, 20 μM: read-out: chemical stability in human bronchoalveolar lavage, percentage at 24 h (measure not given)
Experimental: Peptides 5 and 8 (20 μM) were dissolved in human bronchoalveolar lavage samples (total volume: 100 μl) and incubated at 37 °C for the indicated times. Samples were injected into an high-performance liquid chromatography Agilent 1100 separations module connected to a UV detector with a Discovery C18 column (5 μm, 4.6 × 50 mm). Matrix-assisted laser desorption/ionization data was recorded on a Bruker Ultraflex mass spectrometer using sinapinic acid as the matrix.
Supplementary Figure 9 . Stability of cyclic (8) and linear (5) mono-BODIPY labelled peptid es in human bronchoalveolar lavage samples from p atients w ith acute respiratory distress synd rome.
Pept ides were incubat ed in hum an bronchoalveolar lavage sam ples at 37 °C and anal ysed b y H PLC at the tim e points indicated. Arrows point at the peak s corresponding to the intact linear peptide.
as §1

[6] = test system: human lung A549 epithelial cells; assay: MTT cell viability assay; type: cell-based; settings: MTT, 0, 1.25, 2.5, 5 and 10 μM, 4 h at 37 °C, absorbance 570 nm, means ± s.d., n=4
Experimental: Cell viability was determ ined with a TACS® MTT Cell Proliferation assa y (Trevigen) according to the m anufacturer’s instructions. Briefly, hum an lung A549 epithelial cells were plated on 96-well plates the day before the experim ent, reaching 90- 95% confluence on the day of the experim ent. T he peptide 8 was added to the cells at different concentrations (0, 1.25, 2.5, 5 and 10 µM) and incubated at 37 °C for 4 h. After 4 h, cells were washed, treated according to the m anufacturer’s instructions and their absorbance values (570 nm) were m easured in a Syner gy HT spectrophotom eter (Biotek ). Cell viabilit y data was norm alised to the proliferation of cells without addition of the peptide 8.
Supplementary Figure 17. Cell proliferation assays. Viabilit y of hum an lung A549 epithelial cells after incubation with different concentrations of the peptide 8 . D ata r epresented as m eans ± s.d. (n=4).
as §1

[7] = conidia 5 × 10^5 cells/ml in 10% Vogel's medium, 24 h at 37 °C, OD610 nm, four parameter logistic regression, means±s.e.m., n=3, read-out: IC50 in Aspergillus fumigatus

Row | Compound | IC50 [1, 7] [nM] | cell viability, Pseudomonas aeruginosa [2] [%] | cell viability, Escherichia coli [3] [%] | cell viability, Klebsiella pneumoniae [4] [%] | further results
1 | CC1=CC(C)=[N+]2C1=C(c1cccc(-c3[nH]c4ccccc4c3C[C@H](NC(=O)[C@H](Cc3ccccc3)NC(=O)[C@H](Cc3c[nH]c4ccccc34)NC(=O)[C@H](CCCCN)NC(=O)[C@H](CCCCN)NC(=O)[C@@H](N)CCCNC(=N)N)C(N)=O)c1)c1c(C)cc(C)n1[B-]2(F)F [compound 6] (H-RKKWF[X1]-NH2) | 3000 ± 100 | > 99 | 95 | 96 | –
2 | RKKWFW-NH2 [compound 4, reference compound] | – | > 99 | > 99 | 93 | IC50 ([1]; strain CEA10, 24 h): 7900 ± 200 nM; cell viability, human RBCs (haemolysis) (human RBCs): 99%
3 | CC1=CC(C)=[N+]2C1=C(c1cccc(-c3[nH]c4ccccc4c3C[C@H](NC(=O)[C@H](Cc3ccccc3)NC(=O)[C@H](Cc3c(-c4cccc(C5=C6C(C)=CC(C)=[N+]6[B-](F)(F)n6c(C)cc(C)c65)c4)[nH]c4ccccc34)NC(=O)[C@H](CCCCN)NC(=O)[C@H](CCCCN)NC(=O)[C@@H](N)CCCNC(=N)N)C(N)=O)c1)c1c(C)cc(C)n1[B-]2(F)F [compound 7] | 2500 ± 100 | > 99 | 95 | 93 | –
4 | CC1=CC(C)=[N+]2C1=C(c1cccc(-c3[nH]c4ccccc4c3C[C@H](NC(=O)[C@H](C)NC(=O)[C@H](C)NC(=O)[C@H](C)N)C(=O)N[C@@H](Cc3ccccc3)C(=O)N[C@@H](Cc3c[nH]c4ccccc34)C(N)=O)c1)c1c(C)cc(C)n1[B-]2(F)F [5a] (H-AAA[X1]FW-NH2) | – | – | – | – | activity / affinity in A. fumigatus, in words [1]: poor activity
5 | CC1=CC(C)=[N+]2C1=C(c1cccc(-c3[nH]c4ccccc4c3C[C@@H]3NC(=O)[C@H](CCCCN)NC(=O)[C@H](CCCCN)NC(=O)[C@H](CCCNC(=N)N)NC(=O)CNC(=O)[C@H](Cc4c[nH]c5ccccc45)NC(=O)[C@H](Cc4ccccc4)NC3=O)c1)c1c(C)cc(C)n1[B-]2(F)F [compound 8] (cyclo(FWGRKK[X1])) | 2000 ± 100 | > 99 | 96 | 94 | affinity for fungal cells compared with peptide 5 ([1]; comparison of IC50 values in A. fumigatus): around two-fold enhanced affinity; quantum yield in phospholipid membranes: 30%; stability in human bronchoalveolar lavages, in words ([5]; after 24 h, 20 μM, HPLC-UV): remained intact; remaining at 1 h, 20 μM ([5]; peptide 20 μM): 99%; remaining at 3 h, 20 μM ([5]; peptide 20 μM): 99%; remaining at 24 h, 20 μM ([5]; peptide 20 μM): 95%; cytotoxicity in human lung A549 epithelial cells, in words [6]: No significant differences; also recorded: no cytotoxicity
6 | CC1=CC(C)=[N+]2C1=C(c1cccc(-c3[nH]c4ccccc4c3C[C@H](NC(=O)[C@H](CCCCN)NC(=O)[C@H](CCCCN)NC(=O)[C@@H](N)CCCNC(=N)N)C(=O)N[C@@H](Cc3ccccc3)C(=O)N[C@@H](Cc3c[nH]c4ccccc34)C(N)=O)c1)c1c(C)cc(C)n1[B-]2(F)F [compound 5] (H-RKK[X1]FW-NH2) | 3600 ± 100 | > 99 | 94 | 87 | remaining at 1 h, 20 μM ([5]; peptide 20 μM): 49%; remaining at 3 h, 20 μM ([5]; peptide 20 μM): 2%; remaining at 24 h, 20 μM ([5]; peptide 20 μM): < 1%; half-life at 20 μM ([5]; peptide 20 μM, HPLC-UV): < 60 min
7 | CC1=CC(C)=[N+]2C1=C(c1cccc(-c3[nH]c4ccccc4c3C[C@H](NC(=O)[C@H](CCCCN)NC(=O)[C@H](CCCCN)NC(=O)[C@@H](N)CCCNC(=N)N)C(=O)N[C@@H](C)C(=O)N[C@@H](C)C(N)=O)c1)c1c(C)cc(C)n1[B-]2(F)F [5b] (H-RKK[X1]AA-NH2) | – | – | – | – | activity / affinity in A. fumigatus, in words [1]: reduced activity
